Data published in patent US20220032023A1, “ULTRA-SHARP MICRONEEDLE” (THE TRUSTEES OF COLUMBIA UNIVERSITY IN THE CITY OF NEW YORK, priority 2019, published 2022).
Where two headings read alike, the source gives them in different places.

Tested on: guinea pig perilymph proteome
Description: Animals were treated and sampled independently, and perilymph samples were stored at −80° C. and processed for proteomics analysis upon collection of all samples.
Dexamethasone Treatment of Animals. […] Twenty-two juvenile guinea pigs of either sex weighing between 150 and 300 g were obtained from a commercial vendor (Charles River Laboratories, Inc., Wilmington, Mass.).
Eight animals were assigned to the control group and were not given any treatment prior to aspiration. […] Guinea pigs were anesthetized with isoflurane gas (3.0% for induction and 1.0-3.0% for maintenance). […] The guinea pig remained under isoflurane anesthesia in a left lateral decubitus position for 30 min. The guinea pig was then allowed to recover in its cage until the aspiration procedure.
Aspiration Procedure. All guinea pigs underwent the aspiration procedure detailed below. […] All procedures were performed on the right ear. Guinea pigs were anesthetized with isoflurane gas (3.0% for induction and 1.0-3.0% for maintenance). Lidocaine was injected subcutaneously for local anesthesia. Buprenorphine sustained release (0.1 mg/kg) and meloxicam (0.5 mg/kg) were both administered subcutaneously prior to surgery for postoperative analgesia. To reduce head motion from breath cycles, head fixation was achieved using a modular 3D-printed head holder with two pointed screws placed anterior to the external auditory meatus and posterior to the orbit without piercing the skin.
A scalpel was used to create a 1 cm postauricular incision. Blunt dissection was used to expose the bulla. A 1 mm drill tip fixed onto a Stryker S2 πDrive drill (Stryker, Kalamazoo, Mich.) was used to create a small opening into the middle ear space. Additional bone was removed using forceps to enlarge the opening to 2-3 mm in diameter for optimal visualization of the RWM. A hollow microneedle, mounted onto the tip of a 2 in. long, 30 gauge, blunt small hub removable needle (Hamilton Company, Reno, Nev.), was secured onto a 10 μL Gastight Hamilton syringe (Model 1701 RN, Hamilton Company, Reno, Nev.). The syringe was mounted onto a UMP3 UltraMicroPump (World Precise Instruments, Sarasota, Fla.), and the pump was fixed to a micromanipulator. Using the micromanipulator, the mounted hollow microneedle was slowly advanced toward the RWM and the perforation was confirmed by visualization.
Using the UltraMicroPump, 1 μL of perilymph was aspirated across theRWMover 45 s. The sample was ejected into a 0.5 mL LoBind Microcentrifuge tube (Eppendorf, Hamburg, Germany) containing 2 μL of 1% protease cocktail inhibitor solution (P8340, Sigma-Aldrich, St. Louis, Mo.) in liquid chromatography/mass spectrometry grade water (Optima, ThermoFisher Scientific, Fair Lawn, N.J.) and stored at −80° C. Seventy-two hours after aspiration, animals were sacrificed with pentobarbital overdose.
Proteomics Analysis. All perilymph samples (1 μL) were stored at −80° C. and then processed as described previously. Briefly, samples were purified with a methanol chloroform protein precipitation as previously described. Proteins were resuspended in 8 M urea, 3 mM dithiothreitol (DTT), 100 mM ammonium bicarbonate in liquid chromatography/mass spectrometry grade water, reduced with dithiothreitol, and alkylated with iodoacetamide. For proteolytic digestion, samples were diluted 5-fold in 100 mM ammonium bicarbonate and then digested using sequencing grade trypsin (Promega V511) at a protease/protein ratio of 1:50 at 37° C. for 16 h as described previously. Samples were then desalted with Nest Group C18 Macrospin columns (Southborough, Mass.). Resulting peptides were analyzed by liquid chromatography/mass spectrometry as described previously.

With `C[C@@H]1C[C@H]2[C@@H]3CCC4=CC(=O)C=C[C@]4(C)[C@@]3(F)[C@@H](O)C[C@]2(C)[C@@]1(O)C(=O)COP(=O)(O)O` [Dex, Dexamethasone sodium phosphate] the “number of perilymph proteins downregulated compared to control” value (IP Dex group) was 6 proteins, the “number of perilymph proteins upregulated compared to control” value (IP Dex group) was 8 proteins and the “number of perilymph proteins modulated compared to control” value (IP Dex group, of 175 proteins analysed) was 14 proteins. For the same compound, the “number of perilymph proteins downregulated compared to control” value (IT Dex group) was “two”, the “number of perilymph proteins upregulated compared to control” value (IT Dex group) was “one” and the “number of perilymph proteins modulated compared to control” value (IT Dex group, of 175 proteins analysed) was “three”. For the same compound, the “number of perilymph proteins modulated compared to control” value (by either IP Dex or IT Dex, overall) was 15 proteins.
